The subject of series [1] is ACE (enzyme obtained from Sigma). The series can be described thus: ACE in phosphate buffered saline (PBS) pH 7.4 with a chloride concentration of 260 mM. Particulars: 50° C., up to 60 minutes.
The test system of series [2] is ACE. The series can be described thus: modified Matsui ACE inhibition assay. In kind it is biochemical. The settings on record: as stated in description text; read-out: IC50 value in the Modified Matsui test. On the procedure: To determine the ACE inhibition activity of MAP and ITP, the chemically synthesised tripeptides were assayed according to the method of Matsui et al. (Matsui, T. et al. (1992) Biosci. Biotech. Biochem. 56: 517-518) with some minor modifications.
Each one of the four samples contained 75 μl 3 mM hippuryl histidine leucine (Hip-His-Leu, Sigma) dissolved in a 250 mM borate solution containing 200 mM NaCl, pH 8.3. ACE was obtained from Sigma. The mixtures were incubated at 37° C. and stopped after 30 min by adding 125 μl 0.5 M HCl. […] After incubation for 20 min. at 37° C., 4 ml 4 mM Na2SO3 in 0.2 M NaH2PO4 was added and the light absorbance at 416 nm was measured with UV/Vis spectrophotometer (Shimadzu UV-1601 with a CPS controller, Netherlands).
The amount of ACE inhibition (ACEI) activity was calculated as a percentage of inhibition compared with the conversion rate of ACE in the absence of an inhibitor according to the following formula: […]
Control 1=Absorbance without ACE inhibitory component (=max. ACE activity) [AU]. Control 2=Absorbance without ACE inhibitory component and without ACE (background) [AU]. Sample1=Absorbance in the presence of ACE and the ACE inhibitory component [AU]. Sample 2=Absorbance in the presence of the ACE inhibitory component, but without ACE [AU]. […]

Series [3] has as its target ACE (Homo sapiens, UniProt P12821). Particulars: literature (Nakamura 1995; Aryoshi 1993); read-out: IC50 reported earlier as ACE inhibiting peptides; cited from earlier work.
For series [4], the system named is ACE. The series can be described thus: at-line ACE inhibition assay. In kind it is biochemical. Here is the method: For the at-line ACE inhibition assay 27 μl of a 33.4 mU ml^−1 ACE (enzyme obtained from Sigma) in phosphate buffered saline (PBS) pH 7.4 with a chloride concentration of 260 mM was added and the mixture was allowed to incubate for 5 minutes on a 96 well plate mixer at 700 RPM. After the incubation period 13 μl of a 0.35 mM hippuric acid-histidine leucine (HHL) solution in PBS buffer was added and mixed for 1 minute at 700 RPM. The mixture was allowed to react for 60 minutes at 50° C. in a GC-oven. After the reaction the plate was cooled in melting ice.
The 96 well plate was then analysed on a flash-HPLC-column. Of the reaction mixture of each well 30 μl was injected on a Chromlith Flash RP18e 25×4.6 mm HPLC column (Merck, Darmstadt, Germany) equipped with a 10×4.6 mm RP18e guard column from the same supplier. The isocratic mobile phase consisted of a 0.1% solution of TFA in water/acetonitrile 79/21. […] Hippuric acid (H) and HHL were monitored at 280 nm. The peak heights of H and HHL were measured and the ACE inhibition (ACEI) of each fraction was calculated according to the equation: […]
• DCw Degree of Cleavage by ACE of HHL to H and HL in water • DCa Degree of Cleavage of HHL to H and HL for the analyte The Degree of Cleavage was calculated by expressing the peak height of H as a fraction of the sum of the peak heights of H and HHL.

The subject of series [5] is pepsin (Fluka order no. 77161); 8 times USP pancreatin (Sigma order no. P7545). The series can be described thus: simulated human gastro-intestinal tract (GIT procedure): pepsin with falling pH, then pancreatin up to pH 7.1. The settings on record: 37.5° C., up to t=125 min.

pIC50: −log10 of the molar value.

ACE (Homo sapiens, UniProt P12821), sequence (P12821 30-1306, species assumed): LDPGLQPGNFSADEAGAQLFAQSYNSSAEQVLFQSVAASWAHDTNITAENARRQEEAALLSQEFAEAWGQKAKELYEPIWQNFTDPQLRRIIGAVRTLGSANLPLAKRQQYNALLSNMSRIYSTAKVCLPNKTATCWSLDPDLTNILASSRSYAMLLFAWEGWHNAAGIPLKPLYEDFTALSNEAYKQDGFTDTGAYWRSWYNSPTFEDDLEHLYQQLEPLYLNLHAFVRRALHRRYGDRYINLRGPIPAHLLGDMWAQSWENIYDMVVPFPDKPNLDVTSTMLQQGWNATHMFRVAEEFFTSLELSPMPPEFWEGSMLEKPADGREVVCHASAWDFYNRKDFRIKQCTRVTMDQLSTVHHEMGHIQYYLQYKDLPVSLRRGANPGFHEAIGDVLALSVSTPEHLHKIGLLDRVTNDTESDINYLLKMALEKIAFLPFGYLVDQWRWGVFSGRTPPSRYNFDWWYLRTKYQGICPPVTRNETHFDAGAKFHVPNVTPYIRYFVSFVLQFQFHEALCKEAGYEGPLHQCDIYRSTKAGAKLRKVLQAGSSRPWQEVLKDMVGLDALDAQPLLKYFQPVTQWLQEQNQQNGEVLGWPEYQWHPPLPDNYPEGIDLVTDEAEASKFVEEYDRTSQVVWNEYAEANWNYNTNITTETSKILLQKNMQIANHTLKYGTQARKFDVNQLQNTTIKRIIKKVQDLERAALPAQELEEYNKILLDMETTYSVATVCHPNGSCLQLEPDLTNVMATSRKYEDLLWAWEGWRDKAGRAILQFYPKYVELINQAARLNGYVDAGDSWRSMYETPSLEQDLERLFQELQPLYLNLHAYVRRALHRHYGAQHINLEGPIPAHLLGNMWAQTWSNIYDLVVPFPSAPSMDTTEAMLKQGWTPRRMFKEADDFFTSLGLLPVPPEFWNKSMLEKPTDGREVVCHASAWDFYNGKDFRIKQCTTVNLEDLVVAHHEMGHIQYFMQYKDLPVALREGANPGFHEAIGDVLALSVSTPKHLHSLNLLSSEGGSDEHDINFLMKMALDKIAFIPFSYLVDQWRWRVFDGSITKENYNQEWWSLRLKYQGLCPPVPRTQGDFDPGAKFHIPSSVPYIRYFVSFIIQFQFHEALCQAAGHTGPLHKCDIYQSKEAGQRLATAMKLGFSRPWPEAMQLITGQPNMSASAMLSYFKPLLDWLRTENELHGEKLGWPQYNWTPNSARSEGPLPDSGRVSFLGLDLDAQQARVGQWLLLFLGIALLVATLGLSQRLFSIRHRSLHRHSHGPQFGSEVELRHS

Take Hip-His-Leu: the cleaved bond result in series [1] is “Hip-His”. Regarding “IPP: known ACE inhibiting tripeptide, kappa-casein f 108-110; chemically synthesized internal reference”, the pIC50 is 5.70 in series [2], 5.30 in series [3] and 5.15 in series [4]. On to “LPP: known ACE inhibiting tripeptide, β-casein f151-153 (UniProt P02666 166-168, looked up, fragment)”, for which, in series [3], the negative logarithm of the IC50 (pIC50) is 5.02. Consider Met-Ala-Pro, for which the “amount per gram powder before and after GIT” value in series [5] is given as 2851.4 μg g^−1 powder before, 3095.8 after GIT.
